In patent US12084437B2, “Halo-substituted piperidines as orexin receptor modulators” (AstraZeneca AB, priority 2016, dated 2024):
Where “and” joins values, the source holds several entries; their conditions need not be identical. Identical values can stand only once.

Key:
OX1 = target: T1, OX1 (Homo sapiens, UniProt O43613); experiment: Orexin receptor cell-based functional assay, [Ca2+]i by FLIPR, CHO-OX1 cells; settings: FLIPR calcium, antagonism of EC90 of [OX], read-out: OXI, IC50
T1 construct: expressed in transfected cells; host or cells: CHO (CHO-OX1)
T1 sequence (O43613 1-425): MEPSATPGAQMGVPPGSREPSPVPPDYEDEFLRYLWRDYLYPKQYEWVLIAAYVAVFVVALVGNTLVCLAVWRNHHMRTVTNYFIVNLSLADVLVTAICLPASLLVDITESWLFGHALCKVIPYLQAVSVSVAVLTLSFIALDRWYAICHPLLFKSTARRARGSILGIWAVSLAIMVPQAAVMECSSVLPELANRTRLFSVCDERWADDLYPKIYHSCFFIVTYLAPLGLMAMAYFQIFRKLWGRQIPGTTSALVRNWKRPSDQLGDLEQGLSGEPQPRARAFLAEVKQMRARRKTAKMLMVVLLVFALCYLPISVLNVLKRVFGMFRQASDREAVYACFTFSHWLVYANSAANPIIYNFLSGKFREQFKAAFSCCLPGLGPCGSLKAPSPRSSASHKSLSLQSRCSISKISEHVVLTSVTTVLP

OX2 = target: T2, OX2 (Homo sapiens, UniProt O43614); experiment: Orexin receptor cell-based functional assay, [Ca2+]i by FLIPR, CHO-OX2 cells; settings: FLIPR calcium, antagonism of EC90 of [OX]
T2 construct: expressed in transfected cells; host or cells: CHO (CHO-OX2)
T2 sequence (O43614 1-444): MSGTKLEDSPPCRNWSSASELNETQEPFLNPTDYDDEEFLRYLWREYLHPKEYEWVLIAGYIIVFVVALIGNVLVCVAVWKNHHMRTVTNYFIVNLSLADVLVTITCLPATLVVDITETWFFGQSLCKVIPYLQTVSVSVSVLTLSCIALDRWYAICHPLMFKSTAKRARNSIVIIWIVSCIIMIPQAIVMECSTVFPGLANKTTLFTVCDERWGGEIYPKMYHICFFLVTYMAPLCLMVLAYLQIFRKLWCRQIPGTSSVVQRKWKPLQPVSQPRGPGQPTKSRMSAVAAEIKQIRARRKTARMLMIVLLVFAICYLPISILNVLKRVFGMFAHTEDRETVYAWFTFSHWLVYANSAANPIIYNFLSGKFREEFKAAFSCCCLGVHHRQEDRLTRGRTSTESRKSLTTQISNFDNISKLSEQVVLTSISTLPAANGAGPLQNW
Procedure, shortened: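 CHO cells expressing human OX1 or OX2 (20,000/well, grown overnight) were loaded with Calcium6 dye plus 2.5 mM probenecid for 2 h at 37 °C, then preincubated 30 min with compound (0.1 nM–10 µM). FLIPR fluorescence (ex 488/em 540 nm) was tracked before and after an EC90 orexin challenge.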

IC50 (OX1)	IC50 (OX2) [nM]	SMILES
52 nM	> 5000	C[C@@H]1CC(F)(F)CN(C(=O)c2cc(C#N)ccc2-n2nccn2)[C@@H]1CNc1ncc(C(F)(F)F)cn1 [Compound 14]
> 1000 nM	> 5000	Cc1nc(C(=O)N2CC(F)(F)C[C@@H](C)[C@H]2CNc2cnc(C(F)(F)F)cn2)c(-c2cccnc2)o1 [Compound 156]
12 nM and 6 nM	> 5000	Cc1ccc(-c2cn(C)nc2C(=O)N2CC(F)(F)C[C@@H](C)[C@H]2CNc2ncc(C(F)(F)F)cn2)cc1 [Compound 32]
280 nM	> 5000	C[C@@H]1CC(F)(F)CN(C(=O)c2cn(C)nc2-c2ccccc2)[C@@H]1COc1ncc(C(F)(F)F)cn1 [Compound 209]
6 nM	> 5000	Cc1nc(C(=O)N2CC(F)(F)C[C@@H](C)[C@H]2CNc2ncc(C(F)(F)F)cn2)c(-c2ncccn2)s1 [Compound 49]
8 nM	> 5000	C[C@@H]1CC(F)(F)CN(C(=O)c2cc(Cl)ccc2-n2nccn2)[C@@H]1CNc1ncc(Cl)cn1 [Compound 11]
46 nM	> 5000	C[C@@H]1CC(F)(F)CN(C(=O)c2cc(C#N)ccc2-n2nccn2)[C@@H]1CNc1ncc(Cl)cn1 [Compound 15]
50 nM	> 5000	C[C@@H]1CC(F)(F)CN(C(=O)c2nn(C)cc2-c2ncc(F)cn2)[C@@H]1COc1ccc(C(F)(F)F)cn1 [Compound 248]
2 nM	> 5000	C[C@@H]1CC(F)(F)CN(C(=O)c2nn(C)cc2-c2ccc(Cl)cn2)[C@@H]1CNc1ncc(C(F)(F)F)cn1 [Compound 221, (4-(5-chloropyridin-2-yl)-1-methyl-1H-pyrazol-3-yl)((2S,3R)-5,5-difluoro-3-methyl-2-(((5-(trifluoromethyl)pyrimidin-2-yl)amino)methyl)piperidin-1-yl)methanone]
4 nM	> 5000	COc1cccc(-c2cn(C)nc2C(=O)N2CC(F)(F)C[C@@H](C)[C@H]2CNc2ncc(C(F)(F)F)cn2)c1 [Compound 29]
6 nM	170	COc1ccc(-c2cn(C)nc2C(=O)N2CC(F)(F)C[C@@H](C)[C@H]2CNc2ccc(C(F)(F)F)cn2)cc1 [Compound 177]
4 nM	> 5000	C[C@@H]1CC(F)(F)CN(C(=O)c2cc(Cl)ccc2-c2nnn(C)n2)[C@@H]1COc1ccc(C(F)(F)F)cn1 [Compound 216, (5-chloro-2-(2-methyl-2H-tetrazol-5-yl)phenyl)((2S,3R)-5,5-difluoro-3-methyl-2-(((5-(trifluoromethyl)pyridin-2-yl)oxy)methyl)piperidin-1-yl)methanone]
12 nM	> 5000	Cc1nc(C(=O)N2CC(F)(F)C[C@@H](C)[C@H]2CNc2ncc(C(F)(F)F)cn2)c(-c2ncccc2C)s1 [Compound 75]
8 nM	> 5000	C[C@@H]1CC(F)(F)CN(C(=O)c2cc(F)ccc2-c2nnn(C)n2)[C@@H]1CNc1ncc(C(F)(F)F)cn1 [Compound 252, ((2S,3R)-5,5-difluoro-3-methyl-2-(((5-(trifluoromethyl)pyrimidin-2-yl)amino)methyl)piperidin-1-yl)(5-fluoro-2-(2-methyl-2H-tetrazol-5-yl)phenyl)methanone]
9 nM	> 5000	Cc1ccc(-c2ccccc2)c(C(=O)N2CC(F)(F)C[C@@H](C)[C@H]2CNc2ncc(Cl)cn2)n1 [Compound 52]
5 nM	> 5000	C[C@@H]1CC(F)(F)CN(C(=O)c2nn(C)cc2-c2ccc(F)cc2)[C@@H]1CNc1cnc(C(F)(F)F)cn1 [Compound 121]
14 nM	> 5000	Cc1ccc(-c2ccc(C)nc2C(=O)N2CC(F)(F)C[C@@H](C)[C@H]2CNc2ncc(C(F)(F)F)cn2)nc1 [Compound 231, ((2S,3R)-5,5-difluoro-3-methyl-2-(((5-(trifluoromethyl)pyrimidin-2-yl)amino)methyl)piperidin-1-yl)(5,6′-dimethyl-[2,3′-bipyridin]-2′-yl)methanone]

IC50 (OX1)	IC50 (OX2) [nM]	SMILES
5 nM	> 5000	Cc1ccc(-c2cn(C)nc2C(=O)N2CC(F)(F)C[C@@H](C)[C@H]2CNc2cnc(C(F)(F)F)cn2)cc1 [Compound 122]
5 nM	> 5000	Cc1nc(C(=O)N2CC(F)(F)C[C@@H](C)[C@H]2CNc2ncc(C(F)(F)F)cn2)c(-c2ccccn2)s1 [Compound 70]
5 nM	> 5000	C[C@@H]1CC(F)(F)CN(C(=O)c2nn(C)cc2-c2ccccn2)[C@@H]1CNc1ccc(C(F)(F)F)cn1 [Compound 167]
7 nM	> 5000	C[C@@H]1CC(F)(F)CN(C(=O)c2nn(C)cc2-c2cccc(C(F)(F)F)n2)[C@@H]1CNc1ncc(C(F)(F)F)cn1 [Compound 229, ((2S,3R)-5,5-difluoro-3-methyl-2-(((5-(trifluoromethyl)pyrimidin-2-yl)amino)methyl)piperidin-1-yl)(1-methyl-4-(6-(trifluoromethyl)pyridin-2-yl)-1H-pyrazol-3-yl)methanone]
12 nM	> 5000	Cc1ccc(-c2ncccn2)c(C(=O)N2CC(F)(F)C[C@@H](C)[C@H]2CNc2ccc(C(F)(F)F)cn2)n1 [Compound 183, ((2S,3R)-5,5-difluoro-3-methyl-2-(((5-(trifluoromethyl)pyridin-2-yl)amino)methyl)piperidin-1-yl)(6-methyl-3-(pyrimidin-2-yl)pyridin-2-yl)methanone]
10 nM	> 5000	Cc1ccc(-n2nccn2)c(C(=O)N2CC(F)(F)C[C@@H](C)[C@H]2CNc2ncc(C(F)(F)F)cn2)c1 [Compound 5]
237 nM	> 5000	Cc1nc(C(=O)N2CC(F)(F)C[C@@H](C)[C@H]2CNc2ncc(C(F)(F)F)cn2)c(-c2ccc(F)cn2)s1 [Compound 72]
24 nM	> 5000	C[C@@H]1CC(F)(F)CN(C(=O)c2cc(Cl)ccc2-c2ncccn2)[C@@H]1CNc1ncc(Cl)cn1 [Compound 57, (5-chloro-2-(pyrimidin-2-yl)phenyl)((2S,3R)-2-(((5-chloropyrimidin-2-yl)amino)methyl)-5,5-difluoro-3-methylpiperidin-1-yl)methanone]
4 nM	> 5000	C[C@@H]1CC(F)(F)CN(C(=O)c2nn(C)cc2-c2ccc(F)cc2)[C@@H]1CNc1ncc(Cl)cn1 [Compound 31]
10 nM	> 5000	Cc1cccc(-c2sc(C)nc2C(=O)N2CC(F)(F)C[C@@H](C)[C@H]2CNc2cnc(C(F)(F)F)cn2)c1 [Compound 139]
62 nM	> 5000	C[C@@H]1CC(F)(F)CN(C(=O)c2nn(C)cc2-c2cnccn2)[C@@H]1CNc1ncc(C(F)(F)F)cn1 [Compound 224, ((2S,3R)-5,5-difluoro-3-methyl-2-(((5-(trifluoromethyl)pyrimidin-2-yl)amino)methyl)piperidin-1-yl)(1-methyl-4-(pyrazin-2-yl)-1H-pyrazol-3-yl)methanone]
2 nM	> 5000	COc1ccc(-c2sc(C)nc2C(=O)N2CC(F)(F)C[C@@H](C)[C@H]2CNc2ncc(C(F)(F)F)cn2)nc1 [Compound 78]
56 nM	> 5000	C[C@@H]1CC(F)(F)CN(C(=O)c2nn(C)nc2-c2ccccn2)[C@@H]1CNc1ncc(C(F)(F)F)cn1 [Compound 83]
10 nM	> 5000	Cc1noc(-c2ccc(Cl)cc2C(=O)N2CC(F)(F)C[C@@H](C)[C@H]2CNc2ncc(C(F)(F)F)cn2)n1 [Compound 19]
17 nM	> 5000	Cc1ccnc(-c2cn(C)nc2C(=O)N2CC(F)(F)C[C@@H](C)[C@H]2CNc2ncc(C(F)(F)F)cn2)n1 [Compound 225, ((2S,3R)-5,5-difluoro-3-methyl-2-(((5-(trifluoromethyl)pyrimidin-2-yl)amino)methyl)piperidin-1-yl)(1-methyl-4-(4-methylpyrimidin-2-yl)-1H-pyrazol-3-yl)methanone]
2 nM	> 5000	C[C@@H]1CC(F)(F)CN(C(=O)c2nn(C)cc2-c2ccc(F)cc2)[C@@H]1CNc1ccc(C(F)(F)F)cn1 [Compound 169]
